In patent US20040076968A1, “Method for detecting pre-disposition to hepatotoxicity” (priority 2000, published 2004):

Tests used:
[1] = system: UGT1A gene 3′UTR (exon 5); assay: Association of the UGT1A 3′UTR polymorphism with liver function abnormality in tolcapone-treated patients (case-control genotyping); assay type: in vivo, human; settings: UGT1A-3′_908
Protocol: Disease severity had already been controlled for by the original study inclusion criteria.
In the KTC format, the generation of double-stranded amplification product is monitored using a DNA intercalating dye and a thermal cycler which has a fluorescence-detecting CCD camera attached (PE-Bipsystems GeneAmp 5700 Sequence Detection System). Fluorescence in each well of the PCR amplification plate is measured at each cycle of annealing and denaturation. The cycle at which the relative fluorescence reached a threshold of 0.5 using the SDS sofiware from PE-Biosystems was defined as the Ct.
The amplification reactions were designed to be allele-specific, so that the amplification reaction was positive if the polymorphism was present and the amplification reaction was negative if the polymorphism was absent. For each bi-allelic polymorphism, one well of the amplification plate was set up to be specific for allele 1 and a second well was set up to be specific for allele 2. For each polymorphism to be detected, three primers were designed—two allele-specific primers and one common primer (Table 3). Reactions for allele 1 contained allele 1-specific primer and the common primer and reactions for allele 2 contained allele 2-specific primer and the common primer.
The Ct of each amplification reaction was determined and the difference between the Ct for allele 1 and allele 2 (delta Ct) was, used as the assay result. Samples with delta Cts between −3.0 and 3.0 were considered heterozygous (A1/A2). Samples with delta Cts below −3.0 were considered homozygous for A1 (A1/A1); samples with delta Cts above 3.0 were considered homozygous for A2 (A2/A2).
The patient samples were divided into two groups.
For each genotype, the following analyses were performed:
a) Analysis of the entire genotype: patients were classified according to the following three categories: homozygous 1/1 (two copies of allele 1 and no copies of allele 2), heterozygous 1/2 (one copy of allele 1 and one copy of allele 2) or homozygous 2/2 (no copies of allele 1 and two copies of allele 2). Analysis was conducted to assess whether there were differences in the proportion of case patients in each of these groups, compared with the proportion of control patients. The Cochran-Maentel-Hanszel (CMH) test was applied to the data presented in a 2-by-3 table (the two columns indicating presence or absence of liver function abnormality and the three rows indicating the three categories of the genotype).
b) Analysis of alleles: the presence of allele 1 or 2 in case patients was compared to the presence of the respective allele in the control patients.
c) Analysis of allele counts: this analysis was conducted to compare the distribution of the alleles in patients with liver function abnormality to that of patients without abnormality. The total number of copies of allele 1 among patients with liver function abnormality was compared with the total number of copies of allele 2 among these case patients. The CMH test was applied to the data using a 2-by-2 table (the two columns indicating presence or absence of liver function abnormality and the two rows indicating the two allele counts).
All markers showing significant association to elevated liver transaminases corresponded to SNPs in the UGT1 genes.

[2] = system: rat hepatotocyte cultures; assay: Cytotoxicity in rat hepatocyte cultures; assay type: cell-based; settings: in vitro

n (%) of patients ([1]; Allele C Absent, Liver Function Abnormality Absent): 14 (5.1%) | n (%) of patients ([1]; Allele C Absent, Liver Function Abnormality Present): 4 (3.0%) | n (%) of patients ([1]; Allele C Present, Liver Function Abnormality Absent): 260 (94.9%) | n (%) of patients ([1]; Allele C Present, Liver Function Abnormality Present): 131 (97.0%) | n (%) of patients ([1]; Allele G Absent, Liver Function Abnormality Absent): 163 (59.5%) | n (%) of patients ([1]; Allele G Absent, Liver Function Abnormality Present): 101 (74.8%) | n (%) of patients ([1]; Allele G Present, Liver Function Abnormality Absent): 111 (40.5%) | n (%) of patients ([1]; Allele G Present, Liver Function Abnormality Present): 34 (25.2%) | n (%) of allele copies ([1]; Count Allele C, Liver Function Abnormality Absent): 423 (77.2%) | n (%) of allele copies ([1]; Count Allele C, Liver Function Abnormality Present): 232 (85.9%) | n (%) of allele copies ([1]; Count Allele G, Liver Function Abnormality Absent): 125 (22.8%) | n (%) of allele copies ([1]; Count Allele G, Liver Function Abnormality Present): 38 (14.1%) | n (%) of patients ([1]; Genotype Heterozygous G/C, Liver Function Abnormality Absent): 97 (35.4%) | n (%) of patients ([1]; Genotype Heterozygous G/C, Liver Function Abnormality Present): 30 (22.2%) | n (%) of patients ([1]; Genotype Homozygous C/C, Liver Function Abnormality Absent): 163 (59.5%) | n (%) of patients ([1]; Genotype Homozygous C/C, Liver Function Abnormality Present): 101 (74.8%) | n (%) of patients ([1]; Genotype Homozygous G/G, Liver Function Abnormality Absent): 14 (5.1%) | n (%) of patients ([1]; Genotype Homozygous G/G, Liver Function Abnormality Present): 4 (3.0%)
Structure (SMILES): Cc1ccc(C(=O)c2cc(O)c(O)c([N+](=O)[O-])c2)cc1 [tolcapone]
cytotoxicity on inhibition of glucuronidation and oxidation [2]: increase cytotoxicity
